“And” between values parts separate entries of the source, which are not always exact repeats. Equal values may be shown once.
Legend:
IDO1 [1] = biological target: T1, IDO1 (Homo sapiens, UniProt P14902); test: Biochemical IDO1 assay (NFK GreenScreen); set-up: Recombinant full-length IDO1 (Seegers, N., et al.) and all other assay components were diluted in IDO1 reaction buffer; made in house; settings: recombinant full-length IDO1 25 nM, L-tryptophan 100 μM, NFK Green detection; read-out: IC50, inhibitory potency on IDO1
T1 sequence (P14902 whole entry, species assumed): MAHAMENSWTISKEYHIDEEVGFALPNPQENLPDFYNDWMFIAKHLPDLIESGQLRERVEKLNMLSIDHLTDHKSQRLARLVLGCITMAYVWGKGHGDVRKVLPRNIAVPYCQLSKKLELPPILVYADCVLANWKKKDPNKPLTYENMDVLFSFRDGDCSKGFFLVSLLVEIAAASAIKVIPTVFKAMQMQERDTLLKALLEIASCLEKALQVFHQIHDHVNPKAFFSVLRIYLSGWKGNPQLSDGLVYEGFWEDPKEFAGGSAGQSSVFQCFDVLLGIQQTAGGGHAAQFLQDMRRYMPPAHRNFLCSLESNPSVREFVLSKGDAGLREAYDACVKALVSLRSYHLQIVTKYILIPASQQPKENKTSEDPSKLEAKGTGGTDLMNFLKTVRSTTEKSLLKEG
Procedure, shortened: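 Recombinant full-length IDO1 in 50 mM NaH2PO4 pH 7.0 with 0.05% Tween-20 and 1% glycerol converted 100 μM L-tryptophan (final) over 60 min at room temperature with compound, 0.3% DMSO.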

IDO1 [2] = biological target: T1, IDO1; test: Cell-based assay for IDO1 in interferon-γ stimulated A-375 melanoma cells; settings: interferon-γ stimulation, 48 hours, read-out: IC50, cell-based IDO1 (NFK levels)
Protocol: The biological activity of IDO1 inhibitors can be measured by applying above detection methods to cells that are treated with test compound. The expression of IDO1 can be induced in many different cell lines by stimulation with IFNγ (Takikawa, O., et al., J. Biol. Chem. 263: 2041; 1988; Seegers, et al.), or IDO1 can be expressed in cells that lack endogenous IDO1 by transfection of an expression vector containing IDO1 cDNA.
A-375 melanoma cells were purchased from LGC Standards GmbH (Wesel, Germany) and cultured in DMEM tissue culture medium (Life Technologies, Bleiswijk, The Netherlands), supplemented with 10% (v/v) bovine calf serum. Compounds were dissolved in DMSO and diluted in DMEM. Final DMSO concentration in the assay was 0.4% (v/v). Eight thousand cells per well in 35 μl were seeded in a black 384-well tissue plate (cat. No. 781086; Greiner Bio-One GmbH, Frickenhausen, Germany) and allowed to adhere by incubation at 37° C., 95% humidity, and 5% CO2 overnight. Then, 5 μl of compound solution was added to the cells 1 hour prior to stimulation with 5 μl of 500 ng/ml interferon-γ (R&D Systems, Minneapolis, Minn., USA) diluted in DMEM medium. At the same time, 5 μl of L-tryptophan in 20 mM Hepes buffer pH 7.4 was added. Incubation was continued for 48 hours. To determine NFK levels, 12 μl NFK Green™ (NTRC, Oss, The Netherlands) was added to each well, and the plate was sealed and incubated for 4 hours at 37° C. Fluorescence was measured on an EnVision multimode reader (Perkin Elmer, Waltham, Mass., USA). IC50 were calculated using XLfit™ software (ID Business Solutions, Ltd., Surrey, U.K.).

[3] = biological target: tryptophan 2,3-dioxygenase (TDO) (Homo sapiens, UniProt P48775); settings: Seegers et al. 2014; cited from earlier work
Sequence of tryptophan 2,3-dioxygenase (TDO) (P48775 whole entry, species assumed): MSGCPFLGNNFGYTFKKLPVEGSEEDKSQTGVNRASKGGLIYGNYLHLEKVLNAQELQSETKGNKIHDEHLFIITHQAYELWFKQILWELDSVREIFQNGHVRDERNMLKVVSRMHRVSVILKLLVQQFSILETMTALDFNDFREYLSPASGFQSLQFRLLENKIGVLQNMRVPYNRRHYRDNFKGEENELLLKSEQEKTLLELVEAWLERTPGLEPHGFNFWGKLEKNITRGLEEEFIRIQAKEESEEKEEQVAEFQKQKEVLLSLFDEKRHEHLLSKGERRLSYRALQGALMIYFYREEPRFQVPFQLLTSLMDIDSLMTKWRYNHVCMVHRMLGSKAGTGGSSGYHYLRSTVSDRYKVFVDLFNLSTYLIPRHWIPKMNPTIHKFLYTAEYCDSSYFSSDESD

melanoma = settings: Yue et al. 2009; cited from earlier work

| SMILES | IC50 (IDO1 [1]) | IC50 (IDO1 [2]) [µM] | inhibition of TDO activity in biochemical assays [3] | tumor growth in mouse model for melanoma (melanoma) |
| --- | --- | --- | --- | --- |
| O=C1CN(C(=O)c2cccnc2F)C(c2cccc(Br)c2)N1O (centres unmarked) [Example 87, 2-(3-Bromophenyl)-1-(2-fluoropyridine-3-carbonyl)-3-hydroxy-imidazolidin-4-one] | ≤ 1 µM | < 5 |  |  |
| C#Cc1cccc(C2N(O)C(=O)CN2C(=O)c2c(F)cccc2F)c1 (centres unmarked) [Example 98, 1-(2,6-Difluorobenzoyl)-2-(3-ethynylphenyl)-3-hydroxy-imidazolidin-4-one] | ≤ 1 µM | < 5 |  |  |
| O=C1CN(C(=O)c2c(F)cccc2F)C(c2cccc(C3CC3)c2)N1O (centres unmarked) [Example 99, 2-(3-Cyclopropylphenyl)-1-(2,6-difluorobenzoyl)-3-hydroxy-imidazolidin-4-one] | ≤ 5 µM and 1 to 5 µM | < 5 |  |  |
| O=C1CN(C(=O)c2c(F)cc(C#CC3CC3)cc2F)C(c2cccc(Br)c2)N1O (centres unmarked) [Example 106, 2-(3-Bromophenyl)-1-[4-(2-cyclopropylethynyl)-2,6-difluoro-benzoyl]-3-hydroxy-imidazolidin-4-one] | ≤ 1 µM | < 5 |  |  |
| CC(C)C#Cc1cc(F)c(C(=O)N2CC(=O)N(O)C2c2cccc(Br)c2)c(F)c1 (centres unmarked) [Example 107, 2-(3-Bromophenyl)-1-[2,6-difluoro-4-(3-methylbut-1-ynyl)benzoyl]-3-hydroxy-imidazolidin-4-one] | ≤ 1 µM | < 5 |  |  |
| O=C1CN(C(=O)c2c(F)cc(C#CC3CCCCC3)cc2F)C(c2cccc(Br)c2)N1O (centres unmarked) [Example 108, 2-(3-Bromophenyl)-1-[4-(2-cyclohexylethynyl)-2,6-difluoro-benzoyl]-3-hydroxy-imidazolidin-4-one] | ≤ 1 µM | < 5 |  |  |
| O=C1CN(C(=O)c2c(F)cc(C3CC3)cc2F)C(c2cccc(Br)c2)N1O (centres unmarked) [Example 114, 2-(3-Bromophenyl)-1-(4-cyclopropyl-2,6-difluoro-benzoyl)-3-hydroxy-imidazolidin-4-one] | ≤ 1 µM | < 5 |  |  |
| C=Cc1cc(F)c(C(=O)N2CC(=O)N(O)C2c2cccc(Br)c2)c(F)c1 (centres unmarked) [Example 115, 2-(3-Bromophenyl)-1-(2,6-difluoro-4-vinyl-benzoyl)-3-hydroxy-imidazolidin-4-one] | ≤ 1 µM | < 5 |  |  |
| Cc1cc(F)c(C(=O)N2CC(=O)N(O)C2c2cccc(Br)c2)c(F)c1 (centres unmarked) [Example 116, 2-(3-Bromophenyl)-1-(2,6-difluoro-4-methyl-benzoyl)-3-hydroxy-imidazolidin-4-one] | ≤ 1 µM | < 5 |  |  |
| O=C1CN(C(=O)c2c(F)cc(-c3ccncc3)cc2F)C(c2cccc(Br)c2)N1O (centres unmarked) [Example 118, 2-(3-Bromophenyl)-1-[2,6-difluoro-4-(4-pyridyl)benzoyl]-3-hydroxy-imidazolidin-4-one] | ≤ 1 µM | < 5 |  |  |
| Cn1cc(-c2cc(F)c(C(=O)N3CC(=O)N(O)C3c3cccc(Br)c3)c(F)c2)cn1 (centres unmarked) [Example 119, 2-(3-Bromophenyl)-1-[2,6-difluoro-4-(1-methylpyrazol-4-yl)benzoyl]-3-hydroxy-imidazolidin-4-one] | ≤ 1 µM | < 5 |  |  |
| O=C1CN(C(=O)c2c(F)cc(-c3cccs3)cc2F)C(c2cccc(Br)c2)N1O (centres unmarked) [Example 120, 2-(3-Bromophenyl)-1-[2,6-difluoro-4-(2-thienyl)benzoyl]-3-hydroxy-imidazolidin-4-one] | ≤ 1 µM | < 5 |  |  |
| O=C1CN(Cc2ccccc2F)C(c2cccc(I)c2)N1O (centres unmarked) [Example 124, 1-[(2-Fluorophenyl)methyl]-3-hydroxy-2-(3-iodophenyl)imidazolidin-4-one] | ≤ 1 µM | < 5 |  |  |
| O=C1CN(Cc2ccccc2F)C(c2cccc(Br)c2)N1O (centres unmarked) [Example 125, 2-(3-Bromophenyl)-1-[(2-fluorophenyl)methyl]-3-hydroxy-imidazolidin-4-one] | ≤ 1 µM | < 5 |  |  |
| O=C1CN(Cc2c(F)cccc2F)C(c2cccc(Br)c2)N1O (centres unmarked) [Example 127, 2-(3-Bromophenyl)-1-[(2,6-difluorophenyl)methyl]-3-hydroxy-imidazolidin-4-one] | ≤ 1 µM | < 5 |  |  |
| C=Cc1cccc(C2N(O)C(=O)CN2C(=O)c2c(F)cccc2F)c1 (centres unmarked) [Example 129, 1-(2,6-Difluorobenzoyl)-3-hydroxy-2-(3-vinylphenyl)imidazolidin-4-one] | ≤ 1 µM | < 5 |  |  |
| COCCNC(=O)c1cc(F)c(C(=O)N2CC(=O)N(O)C2c2cccc(Br)c2)c(F)c1 (centres unmarked) [Example 137, 4-[2-(3-Bromophenyl)-3-hydroxy-4-oxo-imidazolidine-1-carbonyl]-3,5-difluoro-N-(2-methoxyethyl)benzamide] | ≤ 1 µM | < 5 |  |  |
| COCCNC(=O)c1c(Br)cc(F)c(C(=O)N2CC(=O)N(O)C2c2cccc(Br)c2)c1F (centres unmarked) [Example 138, 6-Bromo-3-[2-(3-bromophenyl)-3-hydroxy-4-oxo-imidazolidine-1-carbonyl]-2,4-difluoro-N-(2-methoxyethyl)benzamide] | ≤ 1 µM | < 5 |  |  |
| Nc1nonc1C(=NO)Nc1ccc(F)c(Cl)c1 [compound 51, 4-amino-N-(3-chloro-4-fluorophenyl)-N′-hydroxy-1,2,5-oxadiazole-3-carboximidamide] |  |  | inhibit the activity of tryptophan 2,3-dioxygenase (TDO) | reduction of tumor growth |

More lines, main results first:

| IC50 (IDO1 [1]) | IC50 (IDO1 [2]) [µM] | SMILES | inhibition of TDO activity in biochemical assays [3] | tumor growth in mouse model for melanoma (melanoma) |
| --- | --- | --- | --- | --- |
| ≤ 1 µM | < 5 | O=C1CN(C(=O)c2ccc(F)cc2F)C(c2cccc(Br)c2)N1O (centres unmarked) [Example 54, 2-(3-Bromophenyl)-1-(2,4-difluorobenzoyl)-3-hydroxy-imidazolidin-4-one] |  |  |
| ≤ 1 µM | < 5 | O=C1CN(C(=O)c2ccc(F)cc2F)C(c2cccc(Cl)c2)N1O (centres unmarked) [Example 59, 2-(3-Chlorophenyl)-1-(2,4-difluorobenzoyl)-3-hydroxy-imidazolidin-4-one] |  |  |
| ≤ 1 µM | < 5 | O=C1CN(C(=O)c2c(F)c(F)c(F)c(F)c2F)C(c2cccc(Br)c2)N1O (centres unmarked) [Example 62, 2-(3-Bromophenyl)-3-hydroxy-1-(2,3,4,5,6-pentafluorobenzoyl)imidazolidin-4-one] |  |  |
| ≤ 1 µM | < 5 | COc1cc(F)c(C(=O)N2CC(=O)N(O)C2c2cccc(Br)c2)c(F)c1 (centres unmarked) [Example 66, 2-(3-Bromophenyl)-1-(2,6-difluoro-4-methoxy-benzoyl)-3-hydroxy-imidazolidin-4-one] |  |  |
| ≤ 1 µM | < 5 | O=C1CN(C(=O)c2c(F)cccc2F)C(c2cccc([N+](=O)[O-])c2)N1O (centres unmarked) [Example 67, 1-(2,6-Difluorobenzoyl)-3-hydroxy-2-(3-nitrophenyl)imidazolidin-4-one] |  |  |
| ≤ 1 µM | < 5 | O=C1CN(C(=O)c2c(F)cccc2F)C(c2cccc(I)c2)N1O (centres unmarked) [Example 71, 1-(2,6-Difluorobenzoyl)-3-hydroxy-2-(3-iodophenyl)imidazolidin-4-one] |  |  |
| ≤ 1 µM | < 5 | O=C1CN(C(=O)c2c(F)cccc2Cl)C(c2cccc(I)c2)N1O (centres unmarked) [Example 72, 1-(2-chloro-6-fluoro-benzoyl)-3-hydroxy-2-(3-iodophenyl)imidazolidin-4-one] |  |  |
| ≤ 1 µM | < 5 | O=C1CN(C(=O)c2ccccc2F)C(c2cccc(I)c2)N1O (centres unmarked) [Example 73, 1-(2-Fluorobenzoyl)-3-hydroxy-2-(3-iodophenyl)imidazolidin-4-one] |  |  |
| ≤ 1 µM | < 5 | Nc1ccc(F)c(C(=O)N2CC(=O)N(O)C2c2cccc(Br)c2)c1F (centres unmarked) [Example 76, 1-(3-Amino-2,6-difluoro-benzoyl)-2-(3-bromophenyl)-3-hydroxy-imidazolidin-4-one] |  |  |
| ≤ 1 µM | < 5 | O=C1CN(C(=O)c2c(F)cc(F)cc2F)C(c2cccc(Br)c2)N1O (centres unmarked) [Example 82, 2-(3-Bromophenyl)-3-hydroxy-1-(2,4,6-trifluorobenzoyl)imidazolidin-4-one] |  |  |
| ≤ 1 µM | < 5 | O=C1CN(C(=O)c2c(F)cc(Br)cc2F)C(c2cccc(Br)c2)N1O (centres unmarked) [Example 85, 1-(4-Bromo-2,6-difluoro-benzoyl)-2-(3-bromophenyl)-3-hydroxy-imidazolidin-4-one] |  |  |
| ≤ 1 µM | < 5 | O=C1CN(C(=O)c2ccncc2F)C(c2cccc(Br)c2)N1O (centres unmarked) [Example 86, 2-(3-Bromophenyl)-1-(3-fluoropyridine-4-carbonyl)-3-hydroxy-imidazolidin-4-one] |  |  |

— patent US10494360B2, “Inhibitors of indoleamine 2,3-dioxygenase” (NETHERLANDS TRANSLATIONAL RESEARCH CENTER B.V., priority 2016, dated 2019)
